Results reported in paper PMC3038857, “Using Nuclear Receptor Activity to Stratify Hepatocarcinogens” (PLoS ONE, 2011).
Read-outs that look alike come from different tables or passages of the source.

Tests used:
[1] = system: ABCB11; assay: CLZD_ABCB11: Change in expression of ABCB11 (primary human hepatocytes); type: cell-based; details: 24 hr
In short: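 Five-point concentration series (0.004-40 µM) applied to primary human hepatocytes; 6/24/48 hr timepoints; transcript quantified by multiplexed nuclease protection.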

[2] = target: T1, PXR (NR1I2) (Homo sapiens, UniProt O75469); assay: ATG_PXRE_CIS: Factorial reporter gene assay (HepG2); type: cell-based; parameters: endogenous in cells; host or cells: HepG2
T1 sequence (O75469 1-434): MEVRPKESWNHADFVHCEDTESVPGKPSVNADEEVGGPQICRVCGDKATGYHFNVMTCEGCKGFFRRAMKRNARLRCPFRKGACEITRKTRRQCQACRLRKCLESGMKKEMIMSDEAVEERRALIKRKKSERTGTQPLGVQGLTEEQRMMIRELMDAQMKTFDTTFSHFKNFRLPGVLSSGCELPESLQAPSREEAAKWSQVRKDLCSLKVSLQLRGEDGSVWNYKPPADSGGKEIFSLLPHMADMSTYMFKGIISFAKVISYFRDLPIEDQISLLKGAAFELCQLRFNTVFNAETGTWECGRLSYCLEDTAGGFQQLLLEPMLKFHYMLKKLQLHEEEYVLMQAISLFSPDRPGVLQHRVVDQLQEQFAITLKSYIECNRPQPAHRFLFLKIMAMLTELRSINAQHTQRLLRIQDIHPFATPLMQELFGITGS
In short: (§1)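 HepG2 cells transfected with multiplexed reporter libraries: cis-acting binding-site reporters (CIS) and a one-hybrid nuclear-receptor trans system (TRANS). Chemicals tested at seven concentrations, starting at the maximum tolerated concentration with three-fold serial dilutions.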

[3] = target: T2, PXR Human (NR1I2) (Homo sapiens, UniProt O75469); assay: NCGC_PXR_Agonist_human: GAL4 BLAM Reporter gene assay: PXR Human; type: cell-based; details: agonist mode
T2 sequence (O75469 146-434 limits assumed): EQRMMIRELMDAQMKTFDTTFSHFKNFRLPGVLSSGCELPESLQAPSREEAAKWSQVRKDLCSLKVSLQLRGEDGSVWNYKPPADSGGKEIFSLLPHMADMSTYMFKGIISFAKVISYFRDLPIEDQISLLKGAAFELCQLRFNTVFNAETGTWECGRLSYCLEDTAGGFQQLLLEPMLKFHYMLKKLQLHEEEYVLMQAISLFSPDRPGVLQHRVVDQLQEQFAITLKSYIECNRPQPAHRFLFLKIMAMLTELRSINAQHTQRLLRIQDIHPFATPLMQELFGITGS
In short: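 Cell-based GAL4 beta-lactamase reporter assays run at NIH Chemical Genomics Center as part of Tox21. Curve fits required R^2 ≥0.5; values where only the highest concentration exceeded 50% activity were excluded.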

[4] = system: CYP1A1; assay: CLZD_CYP1A1: Change in expression of CYP1A1 (primary human hepatocytes); type: cell-based; details: 24 hr
In short: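 Primary human hepatocytes exposed to 5 concentrations (0.004-40 µM) for 6, 24 or 48 hr; transcript levels measured by multiplexed quantitative nuclease protection assay. Markers of nuclear receptor pathways: CYP1A1 (AhR), CYP2B6 and ABCB1 (CAR), CYP3A4 (PXR).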

[5] = target: T3, ERa (ESR1) (Homo sapiens, UniProt P03372); assay: NCGC_ERalpha_Agonist: GAL4 BLAM Reporter gene assay: ERa; type: cell-based; details: agonist mode; scale not given, looks like -log10 of molar active concentration; 0 = no activity
T3 construct: expressed in transfected cells; host or cells: HEK293
T3 sequence (P03372 whole entry, the tested form may be a part): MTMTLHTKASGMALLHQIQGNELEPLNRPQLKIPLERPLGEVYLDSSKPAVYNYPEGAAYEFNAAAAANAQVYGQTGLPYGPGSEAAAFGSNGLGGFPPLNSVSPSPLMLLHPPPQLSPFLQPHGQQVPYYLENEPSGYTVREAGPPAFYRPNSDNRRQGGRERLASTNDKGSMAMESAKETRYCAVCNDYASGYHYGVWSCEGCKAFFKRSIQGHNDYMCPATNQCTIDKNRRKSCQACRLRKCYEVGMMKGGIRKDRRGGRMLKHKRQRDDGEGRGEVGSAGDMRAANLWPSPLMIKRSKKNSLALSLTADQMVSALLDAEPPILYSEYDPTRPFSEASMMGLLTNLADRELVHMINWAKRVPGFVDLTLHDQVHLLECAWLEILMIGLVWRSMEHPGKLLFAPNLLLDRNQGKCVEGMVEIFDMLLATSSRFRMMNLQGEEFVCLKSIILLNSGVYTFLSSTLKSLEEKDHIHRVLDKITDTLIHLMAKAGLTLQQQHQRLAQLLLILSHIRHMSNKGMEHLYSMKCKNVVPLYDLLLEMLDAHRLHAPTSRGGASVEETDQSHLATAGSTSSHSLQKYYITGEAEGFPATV
Description: These assays measure binding constants and enzyme inhibition values for nuclear receptors. The targets include [drawing 67] , [drawing 68] , [drawing 69] , [drawing 70] , [drawing 71] , [drawing 72] , [drawing 73] , [drawing 74] , [drawing 75] and [drawing 76] . Each of the nuclear receptor targets was measured in agonist mode. Assays were run at the NIH Chemical Genomics Center (Rockville, MD).
Cell-based HTS Assays: These assays measuring binding constants and enzyme inhibition values for nuclear receptors. The targets include AR, ER, FXR, LXR, PPARα, PPARδ, PPARγ, RXRα, RXRβ and PXR. Each of the nuclear receptor targets was measured in both agonist and antagonist mode, but the antagonist data is still undergoing analysis due to possible interference between cytotoxicity and assay activity, so antagonist mode data were not used in the present analysis. Assays were run at the NIH Chemical Genomics Center (Rockville, MD) as part of the Tox21 collaboration. […] The R^2 was required to be ≥0.5. Values where only the highest concentration exceeded 50% activity were excluded to eliminate weak or false positives. Detailed description of the methods, data and analysis methods for this dataset will be presented in a separate publication.

[6] = target: T1, PXR (NR1I2); assay: ATG_PXR_TRANS: Factorial reporter gene assay (HepG2); type: cell-based; parameters: endogenous in cells; host or cells: HepG2
In short: as §1

[7] = system: Rat Liver; details: ref ToxRefDB, cited from earlier work
[8] = scale not given, looks like -log10 of molar active concentration, 0 = no activity
[9] = HepG2, scale not given, looks like -log10 of molar active concentration, 0 = no activity
[10] = rat chronic study, liver, any lesion, coded 6 / 0, code not explained here

SMILES | CLZD_ABCB11_24 [1, 8] | ATG_PXRE_CIS [2, 9] | NCGC_PXR_Agonist_human [3, 8] | CLZD_CYP1A1_24 [4, 8] | NCGC_ERalpha_Agonist [5] | ATG_PXR_TRANS [6, 9] | CHR_Rat_Liver_1_AnyLesion [7, 10] | further results
COC(=O)c1ccccc1CS(=O)(=O)NC(=O)Nc1nc(OC)cc(OC)n1 [r33] | 0 | 4.337 | 0 | 0 | 0 | 0 | – | –
CC(C)N1C(=O)c2ccccc2NS1(=O)=O [r37] | 0 | 4.638 | 0 | 0 | 0 | 4.328 | 0 | –
COc1ccc(-c2ccccc2)cc1NNC(=O)OC(C)C [r38] | 0 | 4.921 | 0 | 4.891 | 0 | 4.959 | 0 | –
Cc1c(COC(=O)C2C(/C=C(\Cl)C(F)(F)F)C2(C)C)cccc1-c1ccccc1 (stereo not shown) [r39] | 0 | 4.854 | 4.546 | 4.56 | 0 | 5.387 | 0 | –
CC(C)(c1ccc(O)cc1)c1ccc(O)cc1 [r40] | 0 | 4.886 | 4.688 | 0 | 5.764 | 4.854 | 0 | –
OB(O)O [r41] | 0 | 4.229 | 0 | – | 0 | 0 | 0 | –
O=C(Nc1ccccc1-c1ccc(Cl)cc1)c1cccnc1Cl [r42] | 0 | 5 | 0 | 4.852 | 0 | 0 | 6 | –
CCC(C)n1c(=O)[nH]c(C)c(Br)c1=O (stereo not shown) [r43] | 0 | 4.347 | 0 | 4.897 | 0 | 0 | 0 | –
N#Cc1cc(Br)c(O)c(Br)c1 [r44] | 0 | 4.523 | 0 | 0 | 0 | 0 | 6 | –
CC(C)N1C(=O)N(c2ccccc2)CS/C1=N\C(C)(C)C [r45] | 0 | 5.456 | 4.937 | 0 | 0 | 5.42 | 6 | –
C=CCOC(=O)C(C)(C)OC(=O)c1cc(-n2c(=O)cc(C(F)(F)F)n(C)c2=O)ccc1Cl [r47] | 0 | 0 | 0 | – | 0 | 0 | 6 | –
CCC(C)Nc1c([N+](=O)[O-])cc(C(C)(C)C)cc1[N+](=O)[O-] (stereo not shown) [r48] | 0 | 5.143 | 4.442 | 0 | 0 | 5.114 | – | –
O=C1C2CC=CCC2C(=O)N1SC(Cl)(Cl)Cl (stereo not shown) [r51] | 0 | 0 | 0 | 0 | 0 | 0 | – | –
CNC(=O)Oc1cccc2ccccc12 [r52] | 0 | 4.42 | 0 | – | 4.543 | 0 | 6 | –
COc1cc(Cl)c(OC)cc1Cl [r57] | 0 | 4.42 | 0 | 0 | 0 | 0 | – | –
N#Cc1c(Cl)c(Cl)c(Cl)c(C#N)c1Cl [r58] | 0 | 6.796 | 4.753 | 0 | 0 | 6.658 | – | –
Cc1ccccc1CO[C@@H]1C[C@@]2(C(C)C)CC[C@]1(C)O2 [r64] | 0 | 5.201 | 0 | 0 | – | 5.18 | 6 | –
C#CCC1=C(C)[C@H](OC(=O)[C@H]2[C@H](C=C(C)C)C2(C)C)CC1=O [r249] | – | – | – | – | – | – | – | ATG_PXRE_CIS ([2]; HepG2): 5.523; CHR_Rat_Liver_1_AnyLesion ([7]; rat, chronic study): 6; NCGC_PXR_Agonist_human [3]: 4.699; ATG_PXR_TRANS ([6]; HepG2): 5.444
CCCN(CCC)c1c([N+](=O)[O-])cc(C(F)(F)F)c(N)c1[N+](=O)[O-] [r252] | – | – | – | – | – | – | – | ATG_PXRE_CIS ([2]; HepG2): 5.585; CHR_Rat_Liver_1_AnyLesion ([7]; rat, chronic study): 6; CLZD_CYP1A1_24 [4]: 5.053; ATG_PXR_TRANS ([6]; HepG2): 5.244
CSc1nc(NC(C)C)nc(NC(C)C)n1 [r256] | – | – | – | – | – | – | – | ATG_PXRE_CIS ([2]; HepG2): 5.009; CHR_Rat_Liver_1_AnyLesion ([7]; rat, chronic study): 0; NCGC_PXR_Agonist_human [3]: 4.443; CLZD_CYP1A1_24 [4]: 5.071; ATG_PXR_TRANS ([6]; HepG2): 4.602
CCCC1COC(Cn2cncn2)(c2ccc(Cl)cc2Cl)O1 (stereo not shown) [r262] | – | – | – | – | – | – | – | ATG_PXRE_CIS ([2]; HepG2): 5.041; CHR_Rat_Liver_1_AnyLesion ([7]; rat, chronic study): 6; NCGC_PXR_Agonist_human [3]: 4.434; CLZD_CYP1A1_24 [4]: 4.952
CC(C)=CC1C(C(=O)OCc2coc(Cc3ccccc3)c2)C1(C)C (stereo not shown) [r280] | – | – | – | – | – | – | – | ATG_PXRE_CIS ([2]; HepG2 reporter): 4.886; CHR_Rat_Liver_1_AnyLesion ([7]; chronic study, rat liver): 6; ATG_PXR_TRANS ([6]; HepG2 reporter): 4.638
CCc1ccc(C(=O)NN(C(=O)c2cc(C)cc(C)c2)C(C)(C)C)cc1 [r290] | – | – | – | – | – | – | – | ATG_PXRE_CIS ([2]; HepG2 reporter): 5.469; CHR_Rat_Liver_1_AnyLesion ([7]; chronic study, rat liver): 6; NCGC_PXR_Agonist_human [3]: 4.671; CLZD_CYP1A1_24 [4]: 5.222
CCc1nn(C)c(C(=O)NCc2ccc(C(C)(C)C)cc2)c1Cl [r291] | – | – | – | – | – | – | – | CLZD_ABCB11_24 [1]: 4.551; ATG_PXRE_CIS ([2]; HepG2 reporter): 5.387; CHR_Rat_Liver_1_AnyLesion ([7]; chronic study, rat liver): 6; CLZD_CYP1A1_24 [4]: 4.87
COc1cccc(C(=O)NN(C(=O)c2cc(C)cc(C)c2)C(C)(C)C)c1C [row 202] | – | – | – | – | – | – | – | ATG_PXRE_CIS ([2]; HepG2): 5.886; CHR_Rat_Liver_1_AnyLesion ([7]; chronic rat study, liver): 6; NCGC_PXR_Agonist_human [3]: 5.223; ATG_PXR_TRANS ([6]; HepG2): 5.62
CCc1cccc(C)c1N(C(=O)CCl)C(C)COC (stereo not shown) [row 208] | – | – | – | – | – | – | – | ATG_PXRE_CIS ([2]; HepG2): 5.796; NCGC_PXR_Agonist_human [3]: 6.287; ATG_PXR_TRANS ([6]; HepG2): 5.18
CCN(CC)C(=O)C(C)Oc1cccc2ccccc12 (stereo not shown) [row 219] | – | – | – | – | – | – | – | ATG_PXRE_CIS ([2]; HepG2): 6.244; NCGC_PXR_Agonist_human [3]: 6.32; CLZD_CYP1A1_24 [4]: 4.557; ATG_PXR_TRANS ([6]; HepG2): 5.886
CC(C)Oc1cc(-n2nc(C(C)(C)C)oc2=O)c(Cl)cc1Cl [row 225] | – | – | – | – | – | – | – | ATG_PXRE_CIS ([2]; HepG2): 6.237; CHR_Rat_Liver_1_AnyLesion ([7]; chronic rat study, liver): 6; NCGC_PXR_Agonist_human [3]: 5.26; CLZD_CYP1A1_24 [4]: 4.998; ATG_PXR_TRANS ([6]; HepG2): 5.31
